Consider eleven compounds from ChEMBL document CHEMBL1136822, “Synthesis, antiviral activity and pharmacokinetics of P1/P1' substituted 3-aminoindazole cyclic urea HIV protease inhibitors” (Bioorg Med Chem Lett, 2003).

Series [1] concerns Human immunodeficiency virus 1. Nature of the series: Resistance factor of compound towards HIV-1 was measured as inhibitory concentration of compound required to inhibit viral RNA transcripts accumulation after infection in cells. The class given is functional.
Series [2] is described as follows: Effect on increase in RNA IC90 value after HSA (45 mg/mL) and AAG (1 mg/mL) were determined in absence or presence of two plasma proteins (45 mg/mL human serum albumin and 1 mg/mL alpha-1-acid glycoprotein). The class given is functional.
Series [3] deals with Human immunodeficiency virus 1. The series can be described thus: Inhibitory concentration of compound against HIV HXB2 strain. The class given is functional.
The subject of series [4] is Human immunodeficiency virus 1. Nature of the series: Inhibitory concentration of compound against HIV abbott mutant virus 25-fold resistant to ritonavir. The class given is functional.
Series [5] addresses Human immunodeficiency virus type 1 protease (Human immunodeficiency virus 1, UniProt Q72874). The series can be described thus: Binding affinity against HIV-Protease was determined.
The species named for a further series is Homo sapiens. The series can be described thus: Protein binding adjusted IC90s for the I84V mutant was determined. The class given is functional.
Series [6] in a line: Oral bioavailability in dog (dose 10 mg/kg). The class given is ADME, organism-based, Canis lupus familiaris. The note with it: in vivo.
Series [7] in a line: 8 hour trough Blood level in dog was measured after administration of compound. The note with it: read-out: C 8 h. The class given is ADME, organism-based, Canis lupus familiaris.
Series [8] can be described thus: Half life period (10 mg/kg) was determined in dog. The class given is ADME, organism-based, Canis lupus familiaris. The note with it: in vivo.
The nature of series [9]: Pharmacokinetic activity (Cmax) in dog. The class given is ADME, organism-based, Canis lupus familiaris. The note with it: in vivo.
Series [10] concerns MT2. Nature of the series: Inhibitory concentration of compound against HIV V82F/[…] mutant in MT2 cells. The class given is functional. The note with it: Homo sapiens.
The nature of series [11]: Half life period in dog. The class given is ADME, organism-based, Canis lupus familiaris. The note with it: in vivo.
The subject of series [12] is Human immunodeficiency virus 1. The series can be described thus: Inhibitory concentration of compound against HIV vertex mutant virus 19-fold resistant to […]. The class given is functional.
Series [13] concerns Human immunodeficiency virus 1. The series can be described thus: Inhibitory concentration of compound against HIV vertex mutant virus 19-fold resistant to amprenavir. The class given is functional.
Series [14] concerns MT2. The series can be described thus: Inhibitory concentration of compound against HIV […] mutant in MT2 cells. The class given is functional. The note with it: Homo sapiens.
A short description of series [15]: Pharmacokinetic activity (Cmax) (10 mg/kg) was determined in dog. The class given is ADME, organism-based, Canis lupus familiaris. Also on record: dose 10 mg/kg. The note with it: in vivo.

Regarding `Cc1cc(C)cc(C[C@@H]2[C@H](O)[C@@H](O)[C@@H](Cc3cc(C)cc(C)c3)N(Cc3ccc4[nH]nc(N)c4c3)C(=O)N2Cc2ccccc2)c1`, the IC90 (commonly the concentration needed for an effect of 90%) is 50 nM in series [1], 100 nM in [3], more than 7300 nM in series [4] and 350 nM in the series filed under Homo sapiens. In addition, the Fold shift in series [2] turned out to be 7. Further, the Ki – broadly, a dissociation constant, usually derived from enzyme kinetics or from competition with a known ligand – in [5] amounted to 0.2 nM.
For the compound `CCCCN1C(=O)N(Cc2ccc3[nH]nc(N)c3c2)[C@H](Cc2cc(C)cc(C)c2)[C@H](O)[C@@H](O)[C@H]1Cc1cc(C)cc(C)c1`, the IC90 worked out at 66 nM in series [1], 56 nM in [3] and 7540 nM in [4]. In series [5], this compound yielded a Ki of 0.19 nM.
In the case of `Nc1n[nH]c2ccc(CN3C(=O)N(Cc4ccccc4)[C@H](Cc4ccccc4)[C@H](O)[C@@H](O)[C@H]3Cc3ccccc3)cc12`, in series [6], the bioavailability (commonly dose-corrected exposure relative to a reference, in per cent) was 60%. Besides, the concentration at 8 h in [7] was determined as 2.8 µM. Besides, the half-life (usually the time needed for the level to fall by half in the phase considered) in series [8] was 3.5 h. Besides, the Cmax – broadly, the highest concentration seen after dosing – in series [9] turned out to be 9.6 µM.
For the compound `CCCCN1C(=O)N(Cc2ccc3[nH]nc(N)c3c2)[C@H](Cc2ccc(C)cc2)[C@H](O)[C@@H](O)[C@H]1Cc1ccc(C)cc1`, the IC90 in the series with MT2 [10] turned out to be 1750 nM; in [1] it was 12 nM; in [3], 16 nM; in series [4], 1700 nM; in the series listed under Homo sapiens, 420 nM; in series [12], 7 nM. The bioavailability in series [6] came to 23%. In series [7], the concentration at 8 h was determined as 0.07 µM. Moreover, the half-life in [11] was 1.6 h. Further, the Fold shift in series [2] is reported as 35. Besides, the highest concentration (Cmax) in series [9] was found to be 1.2 µM. Further, in series [5], the Ki stood at 0.037 nM.
`Nc1[nH]nc2ccc(CN3C(=O)N(Cc4ccccc4)[C@H](Cc4ccccc4)[C@H](O)[C@@H](O)[C@H]3Cc3ccccc3)cc12`: the IC90 worked out at 2100 nM in the series on MT2 [10]; 62 nM in series [1]; 92 nM in series [3]; 1520 nM in series [4]; 496 nM in the series filed under Homo sapiens; 257 nM in series [13]. In the series on MT2 [14], this compound returned an IC90 of 370 nM.
Turning to `CCCCN1C(=O)N(Cc2ccc3[nH]nc(N)c3c2)[C@H](Cc2ccc(CC)cc2)[C@H](O)[C@@H](O)[C@H]1Cc1ccc(CC)cc1`, the concentration for an effect of 90% (IC90) was more than 1800 nM with MT2 [10]; 10 nM in series [1]; 22 nM in series [3]; 4030 nM in [4]; 220 nM in the series filed under Homo sapiens; 260 nM in the series with MT2 [14]. Moreover, the Fold shift in [2] stood at 22. In series [5], this compound came in with an inhibitory constant (Ki) of 0.094 nM.
On to `Cc1ccc(C[C@@H]2[C@H](O)[C@@H](O)[C@@H](Cc3ccc(C)cc3)N(Cc3ccc4[nH]nc(N)c4c3)C(=O)N2Cc2ccccc2)cc1`, for which the IC90 in the series with MT2 [10] is more than 1700 nM; in series [1] it was 12 nM; in [3], 17 nM; in [4] it was 1880 nM; in the series filed under Homo sapiens, 192 nM; in series [12], 24 nM. For the same compound, the concentration for an effect of 90% (IC90) in the series on MT2 [14] was determined as 310 nM. The same compound returned a bioavailability in series [6] of 29%. Further, in [7], the concentration at 8 h stood at 0.35 µM. In addition, the concentration in series [15] peaked (Cmax) at 3.6 µM. The compound also had a half-life in series [8] of 3.9 h. In [2], the Fold shift is 16. The affinity in [5], expressed as Ki, was 0.047 nM.
For `Cc1cccc(C[C@@H]2[C@H](O)[C@@H](O)[C@@H](Cc3cccc(C)c3)N(Cc3ccc4[nH]nc(N)c4c3)C(=O)N2Cc2ccccc2)c1`, the IC90 in the series on MT2 [10] stood at 2680 nM; in series [1], 25 nM; in series [3], 26 nM; in series [4], 1760 nM; in the series listed under Homo sapiens, 300 nM; in the series with MT2 [14], 104 nM. The same compound came in with a bioavailability in series [6] of 20%. Besides, in [7], the concentration at 8 h was found to be 0.35 µM. The compound also returned a Cmax in series [15] of 3.6 µM. Also, the half-life in series [11] was 3.9 h. Further, the Fold shift in series [2] is 12. The compound further came in with a Ki in series [5] of 0.062 nM.
For `CCCCN1C(=O)N(Cc2ccc3[nH]nc(N)c3c2)[C@H](Cc2ccccc2)[C@H](O)[C@@H](O)[C@H]1Cc1ccccc1`, the IC90 with MT2 [10] came out at 1790 nM; in [1], 56 nM; in [3], 69 nM; in [4] it was 1470 nM; in the series filed under Homo sapiens, 952 nM; in series [12], 87 nM. Further, the IC90 in the series on MT2 [14] came to 390 nM. This compound also gave a bioavailability in series [6] of 57%. Further, the concentration at 8 h in series [7] turned out to be 7.2 µM. The half-life in series [11] was 7.7 h. Also, in series [2], the Fold shift came to 17. Besides, in series [9], the Cmax came to 11.7 µM. Also, affinity in series [5] was put at a Ki of 0.021 nM.
In the case of `CCCCN1C(=O)N(Cc2ccc3[nH]nc(N)c3c2)[C@H](Cc2cccc(C)c2)[C@H](O)[C@@H](O)[C@H]1Cc1cccc(C)c1`, the IC90 in the series on MT2 [10] was determined as 1600 nM; in series [1], 31 nM; in series [3] it was 54 nM; in series [4], 1600 nM; in the series filed under Homo sapiens it was 775 nM. In [2], the Fold shift amounted to 25. This compound also gave a Ki in series [5] of 0.045 nM.
Take `CCc1ccc(C[C@@H]2[C@H](O)[C@@H](O)[C@@H](Cc3ccc(CC)cc3)N(Cc3ccc4[nH]nc(N)c4c3)C(=O)N2Cc2ccccc2)cc1`: the IC90 was more than 1600 nM in the series on MT2 [10]; 19 nM in [1]; 81 nM in series [3]; 12600 nM in [4]; 247 nM in the series listed under Homo sapiens; 410 nM in the series on MT2 [14]. Further, the Fold shift in series [2] is reported as 13. Also, the Ki in series [5] was determined as 0.072 nM.
